Data on nine compounds can be found in PMC12637020, “Synthesis and biological evaluation of novel hydrazone derivatives for the treatment of Alzheimer's disease” (RSC Advances, 2025).

Structures are written as SMILES. Bounds are passed on as bounds.

One assay deals with BChE enzyme (Homo sapiens, UniProt P06276). The assay can be described thus: biochemical. Conditions: for inhibition at 1000 µM: read-out: BChE% inhibition 10^−3 M; for inhibition at 100 µM: read-out: BChE% inhibition 10^−4 M. An excerpt: (§1) The assay was completed in two steps.
(§2) The potential inhibitory effects of the obtained molecules on the AChE and BChE enzymes was examined using a variation of the Ellman method.[31,33,41–43] Distilled water from the Millipore/Milli-Q purification apparatus was utilized at every stage of the biological activity investigations during the evaluation process. In less than a week, all the solutions required for the biological investigation were meticulously prepared from scratch. A “BioTek-Precision Power (United States)” robotic pipetting system was utilized to distribute the prepared solutions and apply the test compounds and enzyme–substrate solutions to 96-well plates. The “BioTek-Synergy H1 Microplate Reader (United States)” was employed to establish and follow the enzyme protocol for spectrophotometric measurements. Solutions of the compounds were prepared at two different concentrations, 10^−3 M and 10^−4 M, using dimethylsulfoxide (DMSO) as 2% solution, and these were used in biological activity studies.

The test system of assay [1] is NIH/3T3 mouse embryonic fibroblast cell line. As to the kind of experiment: MTT cytotoxicity test in NIH/3T3 cell line. The note with it: for Selectivity index: IC50 (NIH3T3)/IC50 (AChE); for IC50: Mus musculus, MTT, NIH3T3 fibroblast cells. The class given is cell-based. As to the method: The IC50 values of the compounds were determined by nonlinear regression analysis, allowing the cytotoxic properties of the compounds to be interpreted. The molecules D1f and D1c were active against AChE enzymes.
For cytotoxicity tests, the NIH/3T3 mouse embryonic fibroblast cell line (ATCC® CRL-1658TM, London, UK) was employed. The supplier's recommendation served as the basis for the NIH/3T3 cells' incubation time. In each well of the 96-well plates, […] NIH/3T3 cells were planted. The MTT assay was performed in compliance with the previously mentioned standards.[29,35]
In general terms: Tetrazolium assays rely on reduction of a dye to a coloured formazan, in cell work by metabolically active cells.

The next assay deals with AChE enzyme (Homo sapiens, UniProt P22303). As to the kind of experiment: biochemical. The class given is biochemical. The note with it: for inhibitory activity: at concentrations of 1000 and 100 µM; for inhibition at 1000 µM: read-out: AChE% inhibition 10^−3 M; for inhibition at 100 µM: read-out: AChE% inhibition 10^−4 M; for IC50: tested at 10 to 0.001 µM.
Source text: as §1, §2

One may read the IC50 as the concentration that inhibits the measured activity by half. The term inhibition denotes the share of the control response that was lost under treatment.

Chain of AChE enzyme (P22303 32-614): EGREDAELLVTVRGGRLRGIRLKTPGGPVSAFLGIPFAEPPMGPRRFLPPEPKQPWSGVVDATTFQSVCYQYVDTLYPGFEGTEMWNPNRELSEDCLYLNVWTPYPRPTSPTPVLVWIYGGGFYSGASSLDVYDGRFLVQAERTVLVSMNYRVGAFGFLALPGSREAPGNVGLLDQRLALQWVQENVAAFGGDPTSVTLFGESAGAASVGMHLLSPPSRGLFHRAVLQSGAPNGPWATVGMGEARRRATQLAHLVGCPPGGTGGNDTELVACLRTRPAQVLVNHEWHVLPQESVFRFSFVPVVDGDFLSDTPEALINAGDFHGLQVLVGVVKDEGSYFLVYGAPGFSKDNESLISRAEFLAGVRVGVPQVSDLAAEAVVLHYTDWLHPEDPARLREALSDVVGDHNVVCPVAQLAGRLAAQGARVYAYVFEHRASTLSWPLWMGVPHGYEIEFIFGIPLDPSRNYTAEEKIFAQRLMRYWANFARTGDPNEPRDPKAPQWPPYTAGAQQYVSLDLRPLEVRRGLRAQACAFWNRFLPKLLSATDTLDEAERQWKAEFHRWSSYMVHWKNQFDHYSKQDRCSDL
Chain of BChE enzyme (P06276 29-602, species assumed): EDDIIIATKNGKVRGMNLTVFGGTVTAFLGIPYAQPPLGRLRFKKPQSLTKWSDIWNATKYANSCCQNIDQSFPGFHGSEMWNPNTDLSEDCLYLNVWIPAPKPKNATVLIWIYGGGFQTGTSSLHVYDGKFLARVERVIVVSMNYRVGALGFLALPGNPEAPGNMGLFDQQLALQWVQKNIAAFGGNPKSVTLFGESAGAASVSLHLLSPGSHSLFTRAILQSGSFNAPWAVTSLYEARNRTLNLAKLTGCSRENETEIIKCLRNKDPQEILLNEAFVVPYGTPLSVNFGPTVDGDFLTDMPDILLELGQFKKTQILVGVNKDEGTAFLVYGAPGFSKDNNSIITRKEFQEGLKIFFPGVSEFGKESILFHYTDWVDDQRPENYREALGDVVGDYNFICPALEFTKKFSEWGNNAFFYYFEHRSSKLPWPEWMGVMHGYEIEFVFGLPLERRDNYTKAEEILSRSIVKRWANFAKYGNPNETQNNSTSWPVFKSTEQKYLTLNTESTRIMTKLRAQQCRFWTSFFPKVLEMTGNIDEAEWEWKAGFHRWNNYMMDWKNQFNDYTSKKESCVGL

Regarding `CC(=NN=c1scc(-c2ccc(C#N)cc2)n1C)c1ccc(N2CCCCC2)cc1` [D1f, 4-(-3-Methyl-2-((1-(4-(piperidin-1-yl)phenyl)ethylidene)hydrazineylidene)-2,3-dihydrothiazol-4-yl)benzonitrile], on BChE enzyme, the IC50 was > 1000 µM, the inhibition at 1000 µM was 29 ± 1.24% and the inhibition at 100 µM came out at 17 ± 0.784%. Besides, in assay [1], the Selectivity index is on record as 85.231 and half-maximal inhibition (IC50) required 3.32 ± 0.155 µM. Also, at AChE enzyme, the inhibitory activity entry was “more than 50%”, the inhibition at 1000 µM worked out at 96.8 ± 2.09%, the inhibition at 100 µM is 91.2 ± 2.43% and the IC50 worked out at 0.039 ± 0.001 µM.

Turning to `CC(=NN=c1scc(-c2ccc([N+](=O)[O-])cc2)n1C)c1ccc(N2CCCCC2)cc1` [D1c, 3-Methyl-4-(4-nitrophenyl)-2-((1-(4-(piperidin-1-yl)phenyl)ethylidene)hydrazineylidene)-2,3-dihydrothiazole], at BChE enzyme, the IC50 was > 1000 µM, the inhibition at 1000 µM was determined as 24.4 ± 0.941% and the inhibition at 100 µM is 21.6 ± 0.852%. Besides, in assay [1], the Selectivity index stood at 8.310 and the IC50 worked out at 2.41 ± 0.109 µM. On AChE enzyme, the inhibitory activity entry is recorded as “more than 50%”, the inhibition at 1000 µM was 94.6 ± 2.35%, the inhibition at 100 µM worked out at 90.3 ± 1.53% and the IC50 was 0.29 ± 0.01 µM.

On to `CCn1c(-c2ccc(Cl)cc2)csc1=NN=C(C)c1ccc(N2CCCCC2)cc1` [D3d, 4-(4-Chlorophenyl)-3-ethyl-2-((1-(4-(piperidin-1-yl)phenyl)ethylidene)hydrazineylidene)-2,3-dihydrothiazole], for which, at BChE enzyme, the IC50 is > 1000 µM, the inhibition at 1000 µM is 37.5 ± 1.46% and the inhibition at 100 µM came to 21.3 ± 1.07%. In addition, on AChE enzyme, the inhibition at 1000 µM came to 32.3 ± 1.44%, the inhibition at 100 µM is 23.3 ± 1.05% and the IC50 is > 1000 µM.

For the compound `CCn1c(-c2ccc(C#N)cc2)csc1=NN=C(C)c1ccc(N2CCCCC2)cc1` [D3f, 4-(-3-Ethyl-2-((-1-(4-(piperidin-1-yl)phenyl)ethylidene)hydrazineylidene)-2,3-dihydrothiazol-4-yl)benzonitrile], at BChE enzyme, the IC50 was > 1000 µM, the inhibition at 1000 µM stood at 30.2 ± 1.05% and the inhibition at 100 µM stood at 21.1 ± 0.947%. On AChE enzyme, the inhibition at 1000 µM amounted to 57.4 ± 1.72%, the inhibition at 100 µM worked out at 25.4 ± 0.856% and the IC50 is > 100 µM.

For `CC(=NN=c1scc(-c2ccc(Cl)cc2Cl)n1C)c1ccc(N2CCCCC2)cc1` [D1g, 4-(2,4-Dichlorophenyl)-3-methyl-2-((1-(4-(piperidin-1-yl)phenyl)ethylidene)hydrazineylidene)-2,3-dihydrothiazole], at BChE enzyme, the IC50 was > 1000 µM, the inhibition at 1000 µM was found to be 36.3 ± 1.56% and the inhibition at 100 µM amounted to 31.1 ± 1.07%. At AChE enzyme, the inhibition at 1000 µM was 63.5 ± 1.96%, the inhibition at 100 µM was 16.9 ± 0.778% and the IC50 is > 100 µM.

On to `C=CCn1c(-c2ccc(Cl)c(Cl)c2)csc1=N/N=C(\C)c1ccc(N2CCCCC2)cc1` [D2h, 3-Allyl-4-(3,4-dichlorophenyl)-2-(((E)-1-(4-(piperidin-1-yl)phenyl)ethylidene)hydrazineylidene)-2,3-dihydrothiazole], for which, on BChE enzyme, the IC50 was > 1000 µM, the inhibition at 1000 µM is 36.2 ± 1.36% and the inhibition at 100 µM turned out to be 31.5 ± 0.963%. Moreover, on AChE enzyme, the inhibition at 1000 µM came out at 31.5 ± 1.04%, the inhibition at 100 µM was found to be 20.3 ± 0.989% and the IC50 is > 1000 µM.

Regarding `CCn1c(-c2ccc(Cl)c(Cl)c2)csc1=NN=C(C)c1ccc(N2CCCCC2)cc1` [D3h, 4-(3,4-Dichlorophenyl)-3-ethyl-2-((1-(4-(piperidin-1 yl)phenyl)ethylidene)hydrazineylidene)-2,3-dihydrothiazole], at BChE enzyme, the IC50 is > 1000 µM, the inhibition at 1000 µM worked out at 38.7 ± 1.32% and the inhibition at 100 µM came out at 32.5 ± 1.13%. Also, on AChE enzyme, the inhibition at 1000 µM was found to be 28.4 ± 1.25%, the inhibition at 100 µM is 23.7 ± 0.969% and the IC50 was > 1000 µM.

Take `CCn1c(-c2ccc(F)cc2)csc1=NN=C(C)c1ccc(N2CCCCC2)cc1` [D3b, 3-Ethyl-4-(4-fluorophenyl)-2-((1-(4-(piperidin-1-yl)phenyl)ethylidene)hydrazineylidene)-2,3-dihydrothiazole]: at BChE enzyme, the IC50 is > 1000 µM, the inhibition at 1000 µM turned out to be 32.6 ± 1.46% and the inhibition at 100 µM was 22.6 ± 0.964%. In addition, on AChE enzyme, the inhibition at 1000 µM turned out to be 40.2 ± 1.85%, the inhibition at 100 µM was 35.8 ± 1.25% and the IC50 is > 1000 µM.

For the compound `C=CCn1c(-c2ccc(OC)cc2)csc1=NN=C(C)c1ccc(N2CCCCC2)cc1` [D2e, 3-Allyl-4-(4-methoxyphenyl)-2-((1-(4-(piperidin-1-yl)phenyl)ethylidene)hydrazineylidene)-2,3-dihydrothiazole], at BChE enzyme, the IC50 is > 1000 µM, the inhibition at 1000 µM was 25.7 ± 0.963% and the inhibition at 100 µM came to 17.2 ± 0.634%. Further, on AChE enzyme, the inhibition at 1000 µM came out at 39.6 ± 1.76%, the inhibition at 100 µM came to 25.3 ± 1.06% and the IC50 was > 1000 µM.
